From patent US8906829B2, “Synergistic algicidal compositions including hydrazone derivatives and copper” (Dow AgroSciences LLC, priority 2010, dated 2014)

Legend:
[1] = system: Synechocystis sp. strain 6803; assay: Effect of copper on activity of hydrazones: in vitro growth inhibition of Synechocystis in BG-11 Cu minus / Cu plus medium (Example 11); format: cell-based; settings: for inhibition of growth at 0.05 µg/mL / inhibition of growth at 0.0125 µg/mL / inhibition of growth at 0.00625 µg/mL: Synechocystis, BG-11 Cu minus medium, read-out: % Inhn. Minus Copper Observed; for inhibition of growth at 0.05 µg/mL / % Inhn. Plus Copper Observed / inhibition of growth at 0.0125 µg/mL / inhibition of growth at 0.00625 µg/mL: 72 h; for % Inhn. Plus Copper Observed: BG-11 Cu plus medium
Method in brief: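 Synechocystis sp. 6803 in Chelex-treated, copper-free BG-11 (pH 7.1) or the same medium plus 0.2 μM CuCl2, inoculated from a 4×10^5/mL suspension. Growth after 72 h at 27 °C was measured by light scattering and expressed as % inhibition versus compound-free wells. Copper-plus results were compared with Colby-predicted values.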

[2] = system: Synechocystis sp. strain 6803; assay: Growth inhibition of Synechocystis by hydrazones and isolated metal-hydrazone complexes, BG-11 Cu minus medium (Example 12); format: cell-based; settings: for inhibition of growth at 0.05 µg/mL / Complex % Inhn.: Test Concn. 0.05 μg/ml
Protocol: In vitro toxicity assays against the cyanobacterium (blue-green alga) Synechocystis sp. strain 6803 were conducted using BG-11 medium except that copper micronutrient, normally included as CuSO4.5H2O, was omitted. The medium, termed BG-11 Cu minus, was prepared by dissolving 1.5 g NaNO3, 40 mg K2HPO4, 6 mg citric acid, 1 mg Na2EDTA and 20 mg Na2CO3 in 1 liter of milli Q water and treating the solution with 0.5 g Chelex 100 resin (Bio-Rad Analytical grade, 50-100 mesh, sodium form, cat#142-2822) by stifling at room temperature for 1 h. 900 mL were decanted and 67.5 mg MgSO4.7H2O, 32.4 mg […], 5.4 mg ferric ammonium citrate and 0.9 mL trace metal mix A5 without copper (2.86 g H3BO3, 1.81 g MnCl2.4H2O, 222 mg ZnSO4.7H2O, 390 mg Na2MoO4.2H2O and Co(NO3)2.6H2O in 1 L Milli Q water) was added. The pH was adjusted to 7.1 and the medium was filter-sterilized. Medium containing copper (BG-11 Cu plus) was prepared by adding CuCl2.2H2O to the BG-11 Cu minus medium at 0.2 μM. Test compounds were dissolved in dimethylsulfoxide (DMSO) at 2 mg/mL then appropriate dilutions in BG-11 Cu minus and BG-11 Cu plus media were prepared in sterilized microcentrifuge tubes. 100 μL aliquots were dispensed into flat-bottomed 96-well microtiter plates. Synechocystis was maintained under 24 h of light on BG-11 agar plates at 27° C. A loopful of cells was added to 50 mL of BG-11 Cu minus growth medium and the culture was incubated with shaking at 200 rpm at 27° C. for 24 h. The culture (10 to 20 mL aliquot) was centrifuged in a bench centrifuge at 2400 rpm for 2 min. The resulting cell pellet was resuspended in 5 mL sterile milli Q water (which had been treated with Chelex 100 resin using 0.5 g resin per liter of water by stirring at room temperature for 1 h), and recentrifuged. The cells were resuspended in BG-11 Cu minus medium, and the suspension adjusted to 4×10^5 spores per mL. Microtiter plates containing compounds as described above were inoculated with 100 μL of this cell suspension and the plates incubated at 27° C. for 72 h before assessing algal growth by measuring light scattering in a NepheloStar plate reader. Growth inhibition was determined by comparing growth in the presence of test compound with growth in control wells lacking test compound. Hydrazones and their isolated metal complexes were compared with respect to their in vitro activity toward C. reinhardtii and the cyanobacterium (blue-green alga) Synechocystis sp. strain 6803. Metal complexes of hydrazones were prepared by precipitation from ethanol with various metal salts at 1:1, 2:1 or 3:1 molar ratios, as described in general by Ainscough, Brodie, Dobbs, Ranford, and Waters (Inorganica Chimica Acta 1998, 267, 27-38, which is expressly incorporated by reference herein). In vitro assays against Synechocystis were conducted as described in Example 11 using BG-11 Cu minus medium. Growth inhibition was determined by comparing growth in the presence of test compound with growth in control wells lacking test compound.

[3] = Synechocystis, read-out: Hydrazone % Inhn.

O=C(N/N=C/c1cc(Cl)cc(Cl)c1O)c1ccccc1 [Compound 1]
inhibition of growth at 0.05 µg/mL ([1]; Test Concn. 0.05 μg/mL): 29% | % Inhn. Plus Copper Observed ([1]; Test Concn. 0.05 μg/mL): 91% | inhibition of growth at 0.05 µg/mL [2, 3]: 35%

C/C(=N\NC(=O)c1ccccc1)c1cc(Cl)cc(Cl)c1O [Compound 6]
inhibition of growth at 0.05 µg/mL ([1]; Test Concn. 0.05 μg/mL): 19% | % Inhn. Plus Copper Observed ([1]; Test Concn. 0.05 μg/mL): 99% | inhibition of growth at 0.025 µg/mL ([2]; Synechocystis, Test Concn. 0.025 μg/ml, read-out: Hydrazone % Inhn.): 70%

O=C(N/N=C/c1cc(Cl)cc(Cl)c1O)c1ccccc1O [Compound 7]
inhibition of growth at 0.05 µg/mL ([1]; Test Concn. 0.05 μg/mL): 22% | % Inhn. Plus Copper Observed ([1]; Test Concn. 0.05 μg/mL): 96% | inhibition of growth at 0.0125 µg/mL ([2]; Synechocystis, Test Concn. 0.0125 μg/ml, read-out: Hydrazone % Inhn.): 62%

C/C(=N\NC(=O)c1ccc(Cl)cc1)c1cc(Cl)cc(Cl)c1O [Compound 12]
inhibition of growth at 0.0125 µg/mL ([1]; Test Concn. 0.0125 μg/mL): 21% | % Inhn. Plus Copper Observed ([1]; Test Concn. 0.0125 μg/mL): 82%

O=C(N/N=C/c1cc(Cl)cc(Br)c1O)c1ccccc1 [Compound 14]
inhibition of growth at 0.05 µg/mL ([1]; Test Concn. 0.05 μg/mL): 50% | % Inhn. Plus Copper Observed ([1]; Test Concn. 0.05 μg/mL): 97%

O=C(N/N=C/c1cc(Cl)cc(Br)c1O)c1ccc(Cl)cc1 [Compound 15]
inhibition of growth at 0.00625 µg/mL ([1]; Test Concn. 0.00625 μg/mL): 15% | % Inhn. Plus Copper Observed ([1]; Test Concn. 0.00625 μg/mL): 74%

O=C(N/N=C/c1cc(Cl)cc(Br)c1O)c1ccccc1O [Compound 18]
inhibition of growth at 0.0125 µg/mL ([1]; Test Concn. 0.0125 μg/mL): 47% | % Inhn. Plus Copper Observed ([1]; Test Concn. 0.0125 μg/mL): 86%

O=C(N/N=C/c1ccc(Cl)c(Cl)c1O)c1ccccc1 [Compound 21]
inhibition of growth at 0.0125 µg/mL ([1]; Test Concn. 0.0125 μg/mL): 39% | % Inhn. Plus Copper Observed ([1]; Test Concn. 0.0125 μg/mL): 96%

C/C(=N\NC(=O)c1cccc(C)c1)c1cc(Cl)cc(Cl)c1O [Compound 25, 3-methyl-benzoic acid [1-(3,5-dichloro-2-hydroxyphenyl)-ethylidene]-hydrazide]
inhibition of growth at 0.05 µg/mL ([1]; Test Concn. 0.05 μg/mL): 18% | % Inhn. Plus Copper Observed ([1]; Test Concn. 0.05 μg/mL): 92%

C/C(=N\NC(=O)c1ccc(C)cc1)c1cc(Cl)cc(Cl)c1O [Compound 26]
inhibition of growth at 0.05 µg/mL ([1]; Test Concn. 0.05 μg/mL): 54% | % Inhn. Plus Copper Observed ([1]; Test Concn. 0.05 μg/mL): 95% | inhibition of growth at 0.05 µg/mL [2, 3]: 50%

O=C(N/N=C/c1cc(Cl)cc(C(F)(F)F)c1O)c1ccccc1 [Compound 27]
inhibition of growth at 0.05 µg/mL ([1]; Test Concn. 0.05 μg/mL): 31% | % Inhn. Plus Copper Observed ([1]; Test Concn. 0.05 μg/mL): 95% | inhibition of growth at 0.05 µg/mL [2, 3]: 41%

O=C(N/N=C/c1cc(C(F)(F)F)cc(C(F)(F)F)c1O)c1ccc(Cl)cc1 [Compound 32]
inhibition of growth at 0.05 µg/mL ([1]; Test Concn. 0.05 μg/mL): 26% | % Inhn. Plus Copper Observed ([1]; Test Concn. 0.05 μg/mL): 91% | inhibition of growth at 0.05 µg/mL [2, 3]: 68%

O=C(N/N=C/c1c(Cl)ccc(Cl)c1O)c1ccc(Cl)cc1 [Compound 45]
inhibition of growth at 0.00625 µg/mL ([1]; Test Concn. 0.00625 μg/mL): 33% | % Inhn. Plus Copper Observed ([1]; Test Concn. 0.00625 μg/mL): 78%

O=C(N/N=C/c1cccc(Cl)c1O)c1ccc(Cl)cc1 [Compound 52]
inhibition of growth at 0.0125 µg/mL ([1]; Test Concn. 0.0125 μg/mL): 8% | % Inhn. Plus Copper Observed ([1]; Test Concn. 0.0125 μg/mL): 90% | inhibition of growth at 0.05 µg/mL [2, 3]: 45%

O=C(N/N=C/c1c(C(F)(F)F)ccc(Cl)c1O)c1ccc(Cl)cc1 [Compound 56]
inhibition of growth at 0.0125 µg/mL ([1]; Test Concn. 0.0125 μg/mL): 28% | % Inhn. Plus Copper Observed ([1]; Test Concn. 0.0125 μg/mL): 75%

Cc1ccccc1C(=O)N/N=C/c1cc(Cl)cc(Cl)c1O [Compound 63]
inhibition of growth at 0.05 µg/mL ([1]; Test Concn. 0.05 μg/mL): 37% | % Inhn. Plus Copper Observed ([1]; Test Concn. 0.05 μg/mL): 94% | inhibition of growth at 0.05 µg/mL [2, 3]: 23%

CC(=O)[O-].CC(=O)[O-].O=C(N/N=C/c1cc(Cl)cc(Cl)c1O)c1ccccc1.[Cu+2] [Compound 72]
Complex % Inhn. [2]: 98%

CC(=O)[O-].CC(=O)[O-].O=C(N/N=C/c1cc(Cl)cc(Cl)c1O)c1ccccc1.O=C(N/N=C/c1cc(Cl)cc(Cl)c1O)c1ccccc1.[Cu+2] [Compound 73]
Complex % Inhn. [2]: 97%

O=C(N/N=C/c1cc(Cl)cc(Cl)c1O)c1ccccc1.O=C(N/N=C/c1cc(Cl)cc(Cl)c1O)c1ccccc1.O=S(=O)([O-])[O-].[Cu+2] [Compound 74]
Complex % Inhn. [2]: 95%

O=C(N/N=C/c1cc(Cl)cc(Cl)c1O)c1ccccc1.[Cl-].[Cl-].[Cu+2] [Compound 75]
Complex % Inhn. [2]: 97%

O=C(N/N=C/c1cc(Cl)cc(Cl)c1O)c1ccccc1.O=C(N/N=C/c1cc(Cl)cc(Cl)c1O)c1ccccc1.[Cl-].[Cl-].[Cu+2] [Compound 76]
Complex % Inhn. [2]: 96%

O=C(N/N=C/c1cc(Cl)cc(Cl)c1O)c1ccccc1.O=C(N/N=C/c1cc(Cl)cc(Cl)c1O)c1ccccc1.[Cl-].[Cl-].[Mn+2] [Compound 77]
Complex % Inhn. [2]: 35%

O=C(NN=Cc1cc(Cl)cc(Cl)c1O)c1ccccc1.O=C(NN=Cc1cc(Cl)cc(Cl)c1O)c1ccccc1.[Cl-].[Cl-].[Zn+2] [Compound 78]
Complex % Inhn. [2]: 59%

[Cl][Cu][Cl] [CuCl2, Copper chloride, reference compound]
% Inhn. by copper chloride alone ([1]; CuCl2, 10 μM (so in the source), copper-plus vs copper-minus medium without test compound, across experiments): 7.0 ± 4.6%
